Test results taken from US11407728B2, “Derivatives of EPA endocannabinoid epoxides as anti-inflammatory, anti-cancerous, anti-angiogenc and antiplatelet aggregation compounds” (The Board of Trustees of the University of Illinois, priority 2017, dated 2022).

Tests used:
[1] = target: T1, fatty acid amide hydrolase (FAAH) (Rattus norvegicus, UniProt P97612); experiment: Fatty acid amide hydrolase (FAAH) hydrolysis in rat forebrain membranes; assay type: in vitro ADME; conditions: 50 μM substrate, 100 μg rat forebrain membrane, 5, 20 and 40 minutes, 37° C.
T1 construct: incubated with 100 μg forebrain membrane; from tissue; host or cells: rat forebrain membranes
T1 sequence (P97612 1-579): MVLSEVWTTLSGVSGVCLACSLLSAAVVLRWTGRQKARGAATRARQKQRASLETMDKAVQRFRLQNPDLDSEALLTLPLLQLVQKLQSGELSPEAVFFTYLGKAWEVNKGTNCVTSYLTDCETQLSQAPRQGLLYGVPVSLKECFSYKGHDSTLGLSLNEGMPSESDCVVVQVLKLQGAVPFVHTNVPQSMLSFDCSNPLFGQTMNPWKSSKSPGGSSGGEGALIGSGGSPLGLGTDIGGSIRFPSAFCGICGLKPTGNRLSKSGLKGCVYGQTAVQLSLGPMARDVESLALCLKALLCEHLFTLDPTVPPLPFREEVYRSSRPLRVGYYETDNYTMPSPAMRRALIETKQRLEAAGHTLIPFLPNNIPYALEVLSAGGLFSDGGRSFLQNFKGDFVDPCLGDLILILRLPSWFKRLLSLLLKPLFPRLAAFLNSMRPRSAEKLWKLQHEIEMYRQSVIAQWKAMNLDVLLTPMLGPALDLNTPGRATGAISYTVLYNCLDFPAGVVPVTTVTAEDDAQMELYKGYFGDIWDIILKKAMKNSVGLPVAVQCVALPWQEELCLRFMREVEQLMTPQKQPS
Description: (§1) FIG. 4A, FIG. 4B, FIG. 4C and FIG. 4D show FAAH (FIG. 4B and FIG. 4D) and sEH (FIG. 4A and FIG. 4C) hydrolysis of 17,18-EEQ-EA and 8,9-EEQ-EA, respectively. To determine the rate of hydrolysis by sEH, increasing substrate (8,9-EEQ-EA) concentrations were incubated at 37° C. with sEH ([E]final=6 nM). For Vmax and Km values, plots were fitted to the Michaelis-Menten equation using Origin Pro. For FAAH hydrolysis, membranes from rat forebrain tissue were isolated for time-based hydrolysis. Incubations were performed with 100 μg of forebrain protein and 50 μM of substrate for 5, 20 and 40 minutes at 37° C. Both reactions were measured for product conversion using LC-MS/MS.
For fatty acid amide hydrolase (FAAH) kinetics (FIG. 4B and FIG. 4D), rat forebrain membranes were homogenized in buffer (50 mM Tris pH 7.4, 1 mM EDTA and 3 mM MgCl2) and membrane pellet was collected as previously described. 8,9-EEQ-EA or 13,14-EDP-EA (50 μM) was incubated with 100 μg forebrain membrane containing 50 mM Tris (pH 7.4), 1 mM EDTA, 3 mM MgCl2 in a 0.5 mL reaction. Linearity of the reactions was confirmed at 5, 20 and 40 minutes. Reactions were stopped with methanol containing 1 mM PMSF and centrifuged at 10,000 g for 10 min to collect supernatant via LC-MS/MS.

recombinant sEH = target: T2, recombinant sEH (Homo sapiens, UniProt P34913); experiment: Soluble epoxide hydrolase (sEH) hydrolysis kinetics; assay type: in vitro ADME; conditions: 8,9-EEQ-EA versus 17,18 EEQ-EA
T2 sequence (P34913 1-555): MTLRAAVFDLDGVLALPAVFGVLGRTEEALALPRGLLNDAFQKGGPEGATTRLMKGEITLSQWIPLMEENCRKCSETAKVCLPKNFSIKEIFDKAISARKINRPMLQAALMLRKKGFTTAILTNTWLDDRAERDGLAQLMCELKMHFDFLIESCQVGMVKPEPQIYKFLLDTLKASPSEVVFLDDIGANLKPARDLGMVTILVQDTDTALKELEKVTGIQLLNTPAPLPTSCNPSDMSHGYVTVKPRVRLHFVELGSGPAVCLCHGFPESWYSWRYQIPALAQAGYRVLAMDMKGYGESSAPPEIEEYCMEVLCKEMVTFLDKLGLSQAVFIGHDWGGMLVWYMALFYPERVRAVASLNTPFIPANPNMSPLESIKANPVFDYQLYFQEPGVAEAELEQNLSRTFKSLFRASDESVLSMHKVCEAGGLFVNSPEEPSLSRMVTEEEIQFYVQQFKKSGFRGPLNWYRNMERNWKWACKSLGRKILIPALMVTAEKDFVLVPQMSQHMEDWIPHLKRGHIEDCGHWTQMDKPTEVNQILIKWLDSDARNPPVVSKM
Description: as §1
For soluble epoxide hydrolase (sEH) kinetics, increasing concentrations of substrates (8,9-EEQ-EA (FIG. 4C) and 17,18-EEQ-EA (FIG. 4A)) were incubated with recombinant sEH (final [6 nM]) in a 0.1 mL reaction containing NaPO4 (0.1 M, pH 7.4), bovine serum albumin (0.1 mg/ml) at 37° C. The enzymatic reaction was stopped after 5 min with equal volume of methanol with AUDA (0.5 μM) and centrifuged at 10,000 g for 10 min. The supernatant was saved and quantitated using LC-MS/MS. Data was fit to kinetic curves and the Michaelis-Menten equation was used to calculate Vmax and Km.

[2] = tested on: mouse BV-2 microglial cells; experiment: Anti-inflammatory assay in BV-2 microglial cells, IL-6 secretion (ELISA) after LPS stimulation; assay type: cell-based; conditions: BV-2 cells pre-incubated 4 hours with varying concentrations, 25 ng/mL LPS, media collected at 24 hours
Description: FIG. 3A, FIG. 3B, FIG. 3C and FIG. 3D show the dose-dependent NO and Il-6 studies for 17,18-EEQ-EA and 8,9-EEQ-EA. BV-2 microglial cells were pre-incubated with varying concentrations of 17,18-EEQ-EA or 8,9-EEQ-EA for 4 hours followed by LPS (25 ng/mL) stimulation. Culture medium was collected after 24 hours and analyzed for NO (A, C) and IL-6 (B, D) production. Significant P values are indicated as *** (P≤0.001), ** (P≤0.01), and * (P≤0.05). Values are expressed as mean±SEM and +/− indicates LPS added or LPS not added. * represents P<0.05, ** represents P<0.01, *** represents P<0.001, **** represents P<0.0001 relative to LPS.
Experiments were performed with mouse BV-2 microglial cells. Cells were grown and maintained in Dulbecco's modified Eagle's medium supplemented with 10% fetal bovine serum, 1% streptomycin and penicillin at 37° C. in a 5% CO2 humidified air atmosphere. BV-2 cells were seeded in 24-well plates (200K cells/mL) and grown to 80-90% confluency. […] To determine nitrite and IL-6 production, media was collected at 24 hours and the production of nitric oxide (NO) was determined by using the Greiss method and IL-6 secretion was measured using ELISA (no. 583371; Cayman Chemical).

[3] = target: T3, CNR1 (cannabinoid receptor 1) (Homo sapiens, UniProt P21554); experiment: Presto-Tango β-arrestin recruitment assay, CNR1; assay type: cell-based; conditions: CNR1-transfected HTLA cells, luminescence, 1 μM AUDA; read-out: EC50 CNR1 activation
T3 construct: Tango fusion module; by own knowledge of the PRESTO-Tango design: V2 tail, TEV cleavage site, tTA; (C); own knowledge of the PRESTO-Tango design; (N); host or cells: HTLA cells
T3 sequence (P21554 whole entry, the tested form may be a part): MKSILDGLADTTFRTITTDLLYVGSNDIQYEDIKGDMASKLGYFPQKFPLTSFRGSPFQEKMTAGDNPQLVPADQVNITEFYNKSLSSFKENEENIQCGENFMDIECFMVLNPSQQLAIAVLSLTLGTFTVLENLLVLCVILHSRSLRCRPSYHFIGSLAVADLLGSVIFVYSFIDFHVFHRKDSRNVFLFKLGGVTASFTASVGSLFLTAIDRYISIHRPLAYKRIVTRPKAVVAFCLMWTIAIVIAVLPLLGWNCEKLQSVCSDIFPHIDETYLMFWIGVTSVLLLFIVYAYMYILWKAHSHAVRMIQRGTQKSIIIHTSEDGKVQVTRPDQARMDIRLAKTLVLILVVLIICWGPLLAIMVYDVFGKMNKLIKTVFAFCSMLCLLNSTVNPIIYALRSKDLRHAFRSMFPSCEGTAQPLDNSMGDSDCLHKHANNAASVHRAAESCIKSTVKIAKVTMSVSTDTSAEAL
Text: (§2) FIG. 5A and FIG. 5B show dose-response curves for cannabinoid receptor 1 (CNR1) and cannabinoid receptor 2 (CNR2), respectively. The dose response curves were generated by monitoring the relative luminescence of cannabinoid receptor 1 (CNR1) and cannabinoid receptor 2 (CNR2) of PRESTO-Tango gene-transfected HTLA cells for 17,18-EEQ-EA, EPEA, and CP 55940. Values shown are the mean±SEM of experiments performed multiple times (n=3-7) *P<0.05, **P<0.01, and ***P<0.001.
(§3) Binding of the parent compounds to putative receptors CNR1 and CNR2 (cannabinoid receptors 1 & 2) was measured by a Presto-Tango assay (FIG. 5A and FIG. 5B, respectively). These receptors are responsible for many downstream effects of marijuana derivatives as well as other endocannabinoids that have been previously reported in literature and this study explores if our compounds bind to these receptors. HTLA cells were received from the Roth Lab and CNR1 and CNR2 plasmids were purchased from Addgene. […] The following day, media was removed and 40 μL of diluted Bright-Glo solution (Promega, Madison. Wis.) was added to each well and incubated in the dark for 20 min at room temperature before luminescence recordings. Relative luminescence units (RLU) values were normalized to % receptor response, plotted as a function of compound concentration and analyzed using “DoseResp” in OriginPro.

[4] = target: T4, CNR2 (cannabinoid receptor 2) (Homo sapiens, UniProt P34972); experiment: Presto-Tango β-arrestin recruitment assay, CNR2; assay type: cell-based; conditions: CNR2-transfected HTLA cells, luminescence, 1 μM AUDA; read-out: EC50 CNR2 activation
T4 construct: Tango fusion module; by own knowledge of the PRESTO-Tango design: V2 tail, TEV cleavage site, tTA; (C); own knowledge of the PRESTO-Tango design; (N); host or cells: HTLA cells
T4 sequence (P34972 whole entry, the tested form may be a part): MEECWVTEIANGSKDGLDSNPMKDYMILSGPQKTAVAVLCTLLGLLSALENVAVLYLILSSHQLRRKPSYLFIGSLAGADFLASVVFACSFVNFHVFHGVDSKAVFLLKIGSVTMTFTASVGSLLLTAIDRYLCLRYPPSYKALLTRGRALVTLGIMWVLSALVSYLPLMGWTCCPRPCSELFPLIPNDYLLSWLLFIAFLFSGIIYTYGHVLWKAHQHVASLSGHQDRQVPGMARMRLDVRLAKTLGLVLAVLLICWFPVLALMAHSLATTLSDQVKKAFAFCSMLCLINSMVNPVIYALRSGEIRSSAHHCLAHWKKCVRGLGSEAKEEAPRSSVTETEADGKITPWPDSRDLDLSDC
Text: as §2, §3

Row | Compound | rate of FAAH hydrolysis to the corresponding EEQ [1] | sEH turnover rate relative to 17,18 EEQ-EA (times) (recombinant sEH) | IL-6 secretion [2] | EC50 [3] [nM] | EC50 [4] [nM]
1 | CC/C=C\C/C=C\C/C=C\CC1OC1C/C=C\CCCC(=O)NCCO (stereo not drawn) [8,9-EEQ-EA] | comparable to the rate of 17, 18-EEQ-EA to 17,18-EEQ | 4 | reduced IL-6 in a dose-dependent manner | – | –
2 | CCC1OC1C/C=C\C/C=C\C/C=C\C/C=C\CCCC(=O)NCCO (stereo not drawn) [17,18-EEQ-EA] | – | – | reduced IL-6 in a dose-dependent manner | 18.5 | 1.4
